Assay results taken from article PMC3525568, “The Natively Disordered Loop of Bcl-2 Undergoes Phosphorylation-Dependent Conformational Change and Interacts with Pin1” (PLoS ONE, 2012).
Where a SMILES comes first, the peptide text is derived from it. [ ]: non-standard residue; d: D form. pS = N[C@@H](COP(=O)(O)O)C(=O)O

Legend:
Pin1 [1] = target: T1, Pin1 (Homo sapiens, UniProt Q13526); assay: 1H-15N HSQC titration of 15N-Pin1; settings: reference: unphosphorylated S87 peptide; sites S87
JNK [2] = assay: Phosphorylation of Bcl-2 loop peptides by JNK (HPLC); type: biochemical; settings: peptide 200 µM, JNK 10 µM, 10 mM Tris-HCl pH 7.5, 25 mM MgCl2, 1 mM EGTA, 1 mM ATP, 30°C, 1 h; C-18 HPLC, 225 nm
Experimental: (§1) For the phosphorylation of Bcl-2 by JNK, the purified Bcl-2 (6 µM) was incubated with 0.5 µM JNK for 1 h at 30°C in a buffer containing 10 mM Tris-HCl pH 7.5, 25 mM MgCl2, 1 mM EGTA, 1 mM ATP, 1 µCi γ-^32P-ATP, and 250 µM PMSF. For the phosphorylation of Bcl-2 by ERK2, ERK2 was incubated with purified Bcl-2 in a buffer containing 50 mM Tris-HCl, 10 mM MgCl2, 2 mM dithiothreitol (DTT), 1 mM EGTA, and 0.01% Brij 35 detergent, pH 7.5. The samples were separated on 12.5% gels by SDS-PAGE and visualized using autoradiography.
(§2) The loop peptides (200 µM) were mixed with JNK or ERK2 (10 µM) in the reaction buffer as described above in the “Phosphorylation of Bcl-2”. The reaction was performed at 30°C for 1 h. The samples were passed through a Ni^2+-NTA column to remove kinases fused with the histidine-tag, and the flow-through samples were combined and loaded on a C-18 column for HPLC analysis. The samples (20 µl) were injected into the C-18 column with a flow rate of 1 ml/min. The peptide was eluted with a linear gradient of acetonitrile from 0 to 30%, and the peptide peaks were detected at 225 nm.
(§3) Supplementary file pone.0052047.s001.tif: Figure S1 Phosphorylation of Bcl-2 in the loop domain by ERK2 and JNK. (A–B) Different peptides (200 µM) were added into the reaction mixture with either (A) JNK (10 µM) or (B) ERK2 (10 µM). After reaction at 30°C for 1 h, the samples were heated at 90°C to inactivate the kinase and loaded onto C-18 column for reverse phase-HPLC analysis. (C) Point mutations of Bcl-2 (T56A and S87A) were used for the kinase reaction as described in “Materials and methods”, and the phosphorylation reactions were analyzed by using γ-^32P-ATP and followed by autoradiography. […] (E) The wild-type Bcl-2 and the flexible loop-deletion Bcl-2 mutant Bcl-2, Δ(V35–V89):6A were subject to the phosphorylation reactions by ERK2 and JNK. 1, Bcl-2 with ERK2; 2, Bcl-2Δ(V35–V89):6A with ERK2; 3, Bcl-2 with JNK; 4, Bcl-2Δ(V35–V89):6A with JNK. (TIF) Click here for additional data file.

ERK2 [3] = assay: Phosphorylation of Bcl-2 loop peptides by ERK2 (HPLC); type: biochemical; settings: peptide 200 µM, ERK2 10 µM, 50 mM Tris-HCl, 10 mM MgCl2, 2 mM DTT, 1 mM EGTA, 0.01% Brij 35, pH 7.5, 30°C, 1 h; C-18 HPLC, 225 nm
Experimental: as §1, §2, §3

Pin1 [4] = target: T1, Pin1; assay: 1H-15N HSQC of 15N-Pin1 with peptide
Pin1 [5] = target: T1, Pin1; assay: Binding of peptides to 15N-labeled Pin1 by 2D 1H-15N HSQC NMR titration; parameters: decahistidine (10His) (N); made in house; own knowledge; settings: 0.1 mM 15N-labeled Pin1, 90% H2O/10% D2O, 20 mM phosphate pH 7.0, 20 mM NaCl, 1 mM DTT, 0.01% NaN3, 300 K; HSQC chemical shift change vs ligand/protein ratio
Experimental: NMR data were acquired at 300 K on a Bruker Avance 600 equipped with a cryoprobe accessory. The NMR samples contained 0.1 mM ^15N-labeled Pin 1 in 90% H2O/10% D2O in 20 mM phosphate buffer, pH 7.0, 20 mM NaCl, 1 mM DTT, 0.01% NaN3. Chemical shift perturbations were monitored with 2D ^1H-^15N heteronuclear single quantum correlation spectroscopy (HSQC) upon addition of peptides. NMR spectra were processed using Bruker Topspin1.3. For the dissociation constant determination, lyophilized aliquots of peptides were mixed with ^15N-labeled Pin1 with different molar ratios and 2D ^15N HSQC was recorded. The dissociation constant, KD is expressed as [P]*[L]/[PL] and calculated as previously described, [21], [22].
Figure 3 Pin 1 binds to the phosphopeptide derived from the flexible loop of Bcl-2. The ^15N-labeled Pin1 (0.1 mM) was recorded with (A) 0.8 mM S87 and (B) phosphorylated S87 (pS87). The ^1H-^15N-HSQC spectra with or without peptide are show in blue and red, respectively. (C, D) Some of the amino acid chemical shifts change with the increasing peptide concentration. The arrows show the direction of chemical shift perturbations with an increasing concentration of ligand. (E, F) The relationship between chemical shift change and the ratio between ligand and protein was drawn. Values of KD were calculated from the graphs using the equation described in “Materials and methods”.

JNK [6] = assay: Phosphorylation of Bcl-2 proteins by JNK (γ-32P-ATP, autoradiography); type: biochemical; settings: Bcl-2 6 µM, JNK 0.5 µM, 1 h at 30°C, pH 7.5, γ-32P-ATP, SDS-PAGE
Experimental: as §1
(§4) Supplementary file pone.0052047.s001.tif: Figure S1 Phosphorylation of Bcl-2 in the loop domain by ERK2 and JNK. (A–B) Different peptides (200 µM) were added into the reaction mixture with either (A) JNK (10 µM) or (B) ERK2 (10 µM). After reaction at 30°C for 1 h, the samples were heated at 90°C to inactivate the kinase and loaded onto C-18 column for reverse phase-HPLC analysis. (C) Point mutations of Bcl-2 (T56A and S87A) were used for the kinase reaction as described in “Materials and methods”, and the phosphorylation reactions were analyzed by using γ-^32P-ATP and followed by autoradiography. […] (E) The wild-type Bcl-2 and the flexible loop-deletion Bcl-2 mutant Bcl-2, Δ(V35–V89):6A were subject to the phosphorylation reactions by ERK2 and JNK. 1, Bcl-2 with ERK2; 2, Bcl-2Δ(V35–V89):6A with ERK2; 3, Bcl-2 with JNK; 4, Bcl-2Δ(V35–V89):6A with JNK. […]

ERK2 [7] = assay: Phosphorylation of Bcl-2 proteins by ERK2 (γ-32P-ATP, autoradiography); type: biochemical; settings: 50 mM Tris-HCl, 10 mM MgCl2, 2 mM DTT, 1 mM EGTA, 0.01% Brij 35, pH 7.5, SDS-PAGE
Experimental: as §1, §4

Row | Molecule | degree of phosphorylation by JNK (JNK [2]) | degree of phosphorylation by ERK2 (ERK2 [3]) | also measured
1 | Bcl-2 (from UniProt P10415) pS87 peptide | – | – | binding against the reference (Pin1 [1]): gained; reference no interaction
2 | QPGHTPHPAA [T56, synthetic peptide derived from the Bcl-2 loop covering T56] | able to phosphorylate the T56 peptide to a similar level | able to phosphorylate the T56 peptide to a similar level | –
3 | Bcl-2 (from UniProt P10415) pT74 peptide | – | – | binding against the reference (Pin1 [4]; reference: unphosphorylated T74 peptide, sites T74): gained
4 | PVARTSPLQT [S70, synthetic peptide derived from the Bcl-2 loop covering S70] | poorly phosphorylated | poorly phosphorylated | –
5 | PLQTPAAPGA [T74, synthetic peptide derived from the Bcl-2 loop covering T74] | poorly phosphorylated | poorly phosphorylated | –
6 | CC(C)C[C@H](NC(=O)[C@H](C)NC(=O)[C@@H]1CCCN1C(=O)CN)C(=O)N[C@@H](COP(=O)(O)O)C(=O)N1CCC[C@H]1C(=O)N[C@H](C(=O)N1CCC[C@H]1C(=O)N1CCC[C@H]1C(=O)N[C@H](C(=O)O)C(C)C)C(C)C [pS87] (H-GPAL[pS]PVPPV-OH) | – | – | Kd (Pin1 [5]): ~140 µM
7 | Bcl-2/S87A: single mutant form of Bcl-2 protein | – | – | JNK-mediated phosphorylation of Bcl-2 protein (JNK [6]): affected; ERK2-mediated phosphorylation of Bcl-2 protein (ERK2 [7]): affected
8 | GPALSPVPPV [S87, synthetic peptide derived from the Bcl-2 loop covering S87] | preferred phosphorylation | preferred phosphorylation | –
9 | Bcl-2 (from UniProt P10415) pT56 peptide | – | – | binding against the reference (Pin1 [4]; reference: unphosphorylated T56 peptide, sites T56): gained
10 | Bcl-2/T56A: single mutant form of Bcl-2 protein | – | – | JNK-mediated phosphorylation of Bcl-2 protein (JNK [6]): abolished
